The subject of series [1] is INS1(832/13). The series is described as follows: Cytoprotection in rat INS1(832/13) cells assessed as reduction in streptozocin induced beta cells apoptosis after 20 hrs by MTT based spectrophotometric method. It counts as functional, cell-based. Particulars: INS-1 832/13, 20 h. (Tetrazolium dyes change colour on reduction, which living cells bring about.)
Series [2] concerns INS1(832/13). The series can be described thus: Cytoprotection in rat INS1(832/13) cells assessed as reduction in streptozocin induced beta cells apoptosis after 20 hrs by MTT based spectrophotometric method relative to control. In kind it is functional. Also on record: scale not given: the % may be the effect or the level left.
Series [3] deals with Hepatocyte. The series can be described thus: Increase in glucose uptake in mouse primary hepatocytes assessed as glucose uptake level at 20 uM after 24 hrs by glucose oxidase method relative to control. In kind it is functional.
Series [4] has as its target T1, Hexokinase-4 (Homo sapiens, UniProt P35557).
T1 sequence (P35557 whole entry): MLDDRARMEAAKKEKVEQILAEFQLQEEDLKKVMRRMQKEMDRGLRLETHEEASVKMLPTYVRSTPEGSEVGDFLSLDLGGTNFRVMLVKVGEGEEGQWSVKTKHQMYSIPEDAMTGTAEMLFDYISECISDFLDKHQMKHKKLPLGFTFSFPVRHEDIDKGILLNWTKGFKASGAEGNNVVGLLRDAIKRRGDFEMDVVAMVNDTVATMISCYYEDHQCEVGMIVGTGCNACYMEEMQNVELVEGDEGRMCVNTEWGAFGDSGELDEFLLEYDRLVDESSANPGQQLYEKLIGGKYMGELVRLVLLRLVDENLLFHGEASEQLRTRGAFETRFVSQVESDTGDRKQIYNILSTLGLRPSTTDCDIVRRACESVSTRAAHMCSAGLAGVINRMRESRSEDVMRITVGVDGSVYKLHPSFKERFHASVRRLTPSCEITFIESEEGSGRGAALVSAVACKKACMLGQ
The series can be described thus: Activation of recombinant human liver glucokinase 2 assessed as assessed as reduction in Km for glucose in presence of 5 mM glucose by G6PDH coupled assay.

Series [5] deals with T2, Hexokinase-4 (Rattus norvegicus) (UniProt P17712).
T2 sequence (whole entry): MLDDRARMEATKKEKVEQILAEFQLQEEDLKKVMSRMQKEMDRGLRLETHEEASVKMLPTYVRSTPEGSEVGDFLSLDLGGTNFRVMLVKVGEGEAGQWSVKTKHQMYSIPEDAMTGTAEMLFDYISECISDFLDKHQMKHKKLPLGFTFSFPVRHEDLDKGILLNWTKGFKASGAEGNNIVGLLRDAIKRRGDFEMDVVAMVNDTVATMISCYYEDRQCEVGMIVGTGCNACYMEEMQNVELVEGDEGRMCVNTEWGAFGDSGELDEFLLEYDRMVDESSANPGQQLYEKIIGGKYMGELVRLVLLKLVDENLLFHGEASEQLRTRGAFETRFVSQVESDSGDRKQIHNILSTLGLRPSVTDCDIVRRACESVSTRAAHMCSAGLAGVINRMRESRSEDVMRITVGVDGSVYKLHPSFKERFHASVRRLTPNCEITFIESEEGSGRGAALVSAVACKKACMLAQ
The series is described as follows: Activation of glucokinase in rat INS1(832/13) cells assessed as increase in glucose sensitive insulin secretion at 20 uM after 2 hrs in presence of 5.5 mM glucose by AlphaLISA method relative to control. It counts as cell-based. (In general: Alpha assays give light when donor and acceptor beads are brought close together.)

Series [6] addresses T1, Hexokinase-4. The series is described as follows: Activation of recombinant human liver glucokinase 2 assessed as […] in presence of 5 mM glucose by G6PDH coupled assay.
In series [7] the test system is Mus musculus. The series is described as follows: Toxicity in db/db mouse BKS.Cg-Dock7m+/+ Leprdb/J assessed as dyslipidemia by measuring effect on high density lipoprotein-cholesterol level at 15 to 60 mg/kg, po administered daily for 5 weeks. It counts as organism-based. Particulars: in vivo, 840 h.
Series [8] can be described thus: Half life in Sprague-Dawley rat at 10 mg/kg, po by LC-MS/MS analysis. It counts as ADME, organism-based. The settings on record: in vivo.
The subject of series [9] is Mus musculus. The series is described as follows: Toxicity in db/db mouse BKS.Cg-Dock7m+/+ Leprdb/J assessed as dyslipidemia by measuring effect on low density lipoprotein-cholesterol level at 15 to 60 mg/kg, po administered daily for 5 weeks. In kind it is organism-based. The settings on record: in vivo, 840 h.
Series [10] concerns Mus musculus. The series is described as follows: Antidiabetic activity in dosed db/db mouse BKS.Cg-Dock7m+/+ Leprdb/J assessed as reduction in glucose AUC level at 30 to 60 mg/kg/day, po for 5 weeks measured up to 120 mins after over night fasting at fourth week during OGTT method. In kind it is functional, organism-based.
Series [11] relates to Mus musculus. The series can be described thus: Antidiabetic activity in db/db mouse BKS.Cg-Dock7m+/+ Leprdb/J assessed as reduction in HbA1c level at 15 to 60 mg/kg/day, po for 5 weeks. It counts as functional, organism-based.
Series [12] can be described thus: AUC (0 to infinity) in Sprague-Dawley rat at 10 mg/kg, po by LC-MS/MS analysis. In kind it is ADME, organism-based. Also on record: dose 10 mg/kg, time infinity, route oral. The settings on record: in vivo.
Series [13] has as its system Mus musculus. The series is described as follows: Toxicity in C57BL/6J mouse assessed as decrease in fasting blood glucose level at 200 mg/kg, po administered as single dose measured over 6 hrs. It counts as organism-based. Particulars: in vivo.
The test system of series [14] is Mus musculus. The series can be described thus: Antidiabetic activity in db/db mouse BKS.Cg-Dock7m+/+ Leprdb/J assessed as reduction in fasting plasma glucose level at 15 to 60 mg/kg/day, po for 5 weeks. It counts as functional, organism-based.
Series [15] has as its system Mus musculus. The series is described as follows: Toxicity in db/db mouse BKS.Cg-Dock7m+/+ Leprdb/J assessed as dyslipidemia by measuring effect on cholesterol level at 15 to 60 mg/kg, po administered daily for 5 weeks. Particulars: in vivo, 840 h. It counts as organism-based.
In series [16] the test system is Mus musculus. The series is described as follows: Antidiabetic activity in po dosed db/db mouse BKS.Cg-Dock7m+/+ Leprdb/J assessed as reduction in glucose excursion administered daily for 5 weeks measured up to 120 mins after over night fasting at fourth week by OGTT method. It counts as functional, organism-based.
A short description of series [17]: Tmax in Sprague-Dawley rat at 10 mg/kg, po by LC-MS/MS analysis. It counts as ADME, organism-based. Particulars: in vivo.

Activity calls are given as the source filed them. No cut-off for these calls is given here.

As usually defined, the EC50 is the concentration giving half of the maximal effect. A word on the half-life: it is the time in which the quantity being followed falls by half. Broadly, the AUC(0-inf) is the area under the concentration-time curve extrapolated to infinity. One may read the Tmax as the time at which the peak concentration occurs.

As to `Cc1cnc(NC(=O)c2cc(Oc3cnc(C(=O)N(C)C)nc3)c3cc(C)oc3c2)cn1` [NERIGLIATIN], in [1], the concentration for a half-maximal effect (EC50) is 2150 nM. The Activity in [2] was determined as 114%.

Regarding `COCC(C)Oc1cc(Oc2ccc(S(C)(=O)=O)cc2)cc(C(=O)Nc2nc3c(s2)CCCC3)c1` (stereo unspecified), the Activity in series [3] was 31%; in series [2], 66%. For the same molecule, the 50% effective concentration (EC50) in series [4] was 30 nM; in series [6], 890 nM; in series [1], 700 nM. Besides, the “fold change (FC)” value in series [5] was “inactive”.

As to `COC[C@H](C)Oc1cc(Oc2ccc(C(=O)N3CCC3)cc2)cc(C(=O)Nc2nc3c(s2)CN(C(=O)OC(C)(C)C)CC3)c1`, the Activity entry was “Non-Toxic” in series [7]; “Non-Toxic” in series [9]; 15% in [3]; “Non-Toxic” in [13]; “Non-Toxic” in [15]; “Dose-dependent effect” in series [16]. Also, the Activity in series [2] turned out to be 161%. Besides, the half-life in [8] was 30 min. The outcome in series [10], in series [11] and in [14] was Active. The molecule also displayed an AUC(0-inf) in [12] of 7580 ng·h/mL. Also, the concentration for a half-maximal effect (EC50) in series [4] came to 50 nM; in series [6] it was 160 nM; in [1], 490 nM. For the same molecule, in series [5], the fold change (FC) amounted to 2.69. Also, in [17], the time of peak concentration (Tmax) was 34.8 min.

As for `COCC(C)Oc1cc(Oc2ccc(C(=O)N3CCC3)cc2)cc(C(=O)Nc2nc3c(s2)CN(C(=O)OC(C)(C)C)CC3)c1` (stereo unspecified), the results for the Activity in series [3] and in [2] were 33% and 180%, respectively. Moreover, the concentration for a half-maximal effect (EC50) in series [4] was determined as 150 nM; in series [6], 290 nM; in [1], 680 nM. The fold change (FC) in series [5] worked out at 2.29.
